Experimental data: patent US20260007774A1, “AAV-MEDIATED DELIVERY OF RGS10 TO MICROGLIA” (NEURONITY THERAPEUTICS, INC., priority 2022, published 2026)

Key:
RGS10 KD BV2 cells = experiment: TNF-α production after antioxidant treatment, RGS10 KD BV2 microglia (Meso-Scale Discovery immunoassay); assay type: cell-based, mouse; conditions: 5 mM, 18 hours
Procedure: (§1) BV2 cells are a type of microglial cell line that was originally derived from a C57/B16 mouse. BV2 cells were immortalized by v-raf/v-myc J2 retrovirus.
(§2) The role of RGS10 in regulating a response to inflammatory and metabolic stresses was assessed in microglia cells. BV2 cells were grown in culture and RGS10 expression in BV2 cells was diminished by CRISPR/Cas9 RGS10 knockout methods. Control cells were obtained from CRISPR/Cas9 controls.
(§3) Control and RGS10 KD BV2 cells were allocated into 2 test conditions. The 2 test conditions were 1) Control (no treatment) 2) N-acetylcysteine (NAC) treatment (5 mM). NAC is an antioxidant precursor. NAC is a precursor of L-cysteine that results in biosynthesis of glutathione. Glutathione is a powerful, naturally occurring antioxidant. NAC also acts directly as a scavenger of free radicals, especially oxygen radicals, illustrating extensive antioxidant properties of NAC treatment. NAC treatment in cells leads to a reduction in reactive oxidative species (ROS).
(§4) Cultured cells were subjected to test conditions for 18 hours and then assayed for production of TNF-α using an immunoassay (Meso-Scale Discovery). Values for TNF-α production in Control and RGS10 KD BV2 cells under Condition 1) were scaled to value of 1.0. Values for TNF-α production after NAC treatment were represented as a % of change relative to Condition 1) levels and were graphed in FIG. 3.

Control BV2 cells = experiment: TNF-α production after antioxidant treatment, Control BV2 microglia (Meso-Scale Discovery immunoassay); assay type: cell-based, mouse; conditions: 5 mM, 18 hours
Procedure: as §1, §2, §3, §4

CC(=O)N[C@@H](CS)C(=O)O [NAC, N-acetylcysteine]
TNF-α production after treatment vs no treatment (RGS10 KD BV2 cells): statistically significant reduction in level of TNF-α production | TNF-α production after treatment vs no treatment (Control BV2 cells): statistically significant reduction in level of TNF-α production
